Source: patent publication US12077503B2, “Substituted cyclic amides and their use as herbicides” (FMC CORPORATION, priority 2015, dated 2024)

Legend:
Assay type in all cases: in vivo
[1] = tested on: barnyardgrass (Echinochloa crus-galli); experiment: Test G Pre-Emergence Protocol; details: Echinochloa crus-galli, pre-emergence, 312 h, evaluated after 13 days; for pest or weed control at 15.625 g/ha: 15.625 g ai/ha, read-out: Barnyard grass damage rating (100=total damage to plant; 0=no damage to plant); for pest or weed control at 62.5 g/ha: 62.5 g ai/ha, 100=total damage to plant, 0=no damage to plant, read-out: plant damage rating, Barnyardgrass; for pest or weed control at 250 g/ha: 250 g ai/ha, read-out: Barnyardgrass damage rating (100=total damage to plant; 0=no damage to plant)
How it was run: (§1)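 Seeds were sown in standard soil and kept one day in a glasshouse (24/16° C day/night, 14 h light, 65% humidity), then sprayed with compound in acetone/water (50:50) containing 0.5% Tween 20 at 15.625, 62.5 or 250 g/ha. Damage was scored after 13 days (0 = none, 100 = total).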

corn (Zea mays) [2] = experiment: Test G Pre-Emergence Protocol; details: Zea mays, pre-emergence, 312 h, evaluated after 13 days; for plant injury at 15.625 g/ha: 15.625 g ai/ha; for plant injury at 15.625 g/ha / plant injury at 250 g/ha: read-out: Corn damage rating (100=total damage to plant; 0=no damage to plant); for plant injury at 62.5 g/ha: 62.5 g ai/ha, 100=total damage to plant, 0=no damage to plant, read-out: plant damage rating, Corn; for plant injury at 250 g/ha: 250 g ai/ha
How it was run: as §1

[3] = tested on: giant foxtail (Setaria faberi); experiment: Test G Pre-Emergence Protocol; details: Setaria faberi, pre-emergence, 312 h, evaluated after 13 days; for pest or weed control at 15.625 g/ha: 15.625 g ai/ha; for pest or weed control at 15.625 g/ha / pest or weed control at 250 g/ha: read-out: Foxtail, Giant damage rating (100=total damage to plant; 0=no damage to plant); for pest or weed control at 62.5 g/ha: 62.5 g ai/ha, 100=total damage to plant, 0=no damage to plant, read-out: plant damage rating, Foxtail, Giant; for pest or weed control at 250 g/ha: 250 g ai/ha
How it was run: as §1

[4] = tested on: ivy-leaved morning glory (Ipomoea hederacea); experiment: Test G Pre-Emergence Protocol; details: Ipomoea, pre-emergence, 312 h, evaluated after 13 days; for pest or weed control at 15.625 g/ha: 15.625 g ai/ha, read-out: Morning-glory, Ivy-leaved damage rating (100=total damage to plant; 0=no damage to plant); for pest or weed control at 62.5 g/ha: 62.5 g ai/ha, 100=total damage to plant, 0=no damage to plant, read-out: plant damage rating, Morningglory, Ivy-leaved; for pest or weed control at 250 g/ha: 250 g ai/ha, read-out: Morningglory, Ivy-leaved damage rating (100=total damage to plant; 0=no damage to plant)
How it was run: as §1

[5] = tested on: redroot pigweed (Amaranthus retroflexus); experiment: Test G Pre-Emergence Protocol; details: Amaranthus retroflexus, pre-emergence, 312 h, evaluated after 13 days; for pest or weed control at 15.625 g/ha: 15.625 g ai/ha; for pest or weed control at 15.625 g/ha / pest or weed control at 250 g/ha: read-out: Pigweed, Redroot damage rating (100=total damage to plant; 0=no damage to plant); for pest or weed control at 62.5 g/ha: 62.5 g ai/ha, 100=total damage to plant, 0=no damage to plant, read-out: plant damage rating, Pigweed, Redroot; for pest or weed control at 250 g/ha: 250 g ai/ha
How it was run: as §1

[6] = tested on: velvetleaf (Abutilon theophrasti); experiment: Test G Pre-Emergence Protocol; details: Abutilon theophrasti, pre-emergence, 312 h, evaluated after 13 days; for pest or weed control at 15.625 g/ha: 15.625 g ai/ha; for pest or weed control at 15.625 g/ha / pest or weed control at 250 g/ha: read-out: Velvetleaf damage rating (100=total damage to plant; 0=no damage to plant); for pest or weed control at 62.5 g/ha: 62.5 g ai/ha, 100=total damage to plant, 0=no damage to plant, read-out: plant damage rating, Velvetleaf; for pest or weed control at 250 g/ha: 250 g ai/ha
How it was run: as §1

[7] = tested on: barnyardgrass (Echinochloa crus-galli); experiment: Test G Post-Emergence Protocol; details: Echinochloa crus-galli, post-emergence, 312 h; for pest or weed control at 15.625 g/ha: 15.625 g ai/ha, evaluated after 13 days (100=total damage to plant; 0=no damage to plant), read-out: Barnyardgrass damage rating; for pest or weed control at 62.5 g/ha: 62.5 g ai/ha, read-out: Barnyardgrass damage rating (100=total damage to plant; 0=no damage to plant); for pest or weed control at 62.5 g/ha / pest or weed control at 250 g/ha: evaluated after 13 days; for pest or weed control at 250 g/ha: 250 g ai/ha, read-out: damage to plant, Barnyardgrass (100=total damage to plant; 0=no damage to plant)
How it was run: (§2)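 Eight days post-sowing, plants received a spray of test compound (acetone/water 50:50, 0.5% Tween 20) at 15.625, 62.5 or 250 g/ha. Glasshouse regime thereafter: 24/16 °C, 14 h light, 65% humidity. Assessment after 13 days on a 0–100 damage scale.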

corn (Zea mays) [8] = experiment: Test G Post-Emergence Protocol; details: Zea mays, post-emergence, 312 h; for plant injury at 15.625 g/ha: 15.625 g ai/ha, evaluated after 13 days (100=total damage to plant; 0=no damage to plant), read-out: Corn damage rating; for plant injury at 62.5 g/ha: 62.5 g ai/ha, read-out: Corn damage rating (100=total damage to plant; 0=no damage to plant); for plant injury at 62.5 g/ha / plant injury at 250 g/ha: evaluated after 13 days; for plant injury at 250 g/ha: 250 g ai/ha, read-out: damage to plant, Corn (100=total damage to plant; 0=no damage to plant)
How it was run: as §2

[9] = tested on: giant foxtail (Setaria faberi); experiment: Test G Post-Emergence Protocol; details: Setaria faberi, post-emergence, 312 h; for pest or weed control at 15.625 g/ha: 15.625 g ai/ha, evaluated after 13 days (100=total damage to plant; 0=no damage to plant), read-out: Foxtail, Giant damage rating; for pest or weed control at 62.5 g/ha: 62.5 g ai/ha, read-out: Foxtail, Giant damage rating (100=total damage to plant; 0=no damage to plant); for pest or weed control at 62.5 g/ha / pest or weed control at 250 g/ha: evaluated after 13 days; for pest or weed control at 250 g/ha: 250 g ai/ha, read-out: damage to plant, Foxtail, Giant (100=total damage to plant; 0=no damage to plant)
How it was run: as §2

[10] = tested on: ivy-leaved morning glory (Ipomoea hederacea); experiment: Test G Post-Emergence Protocol; details: Ipomoea, post-emergence, 312 h; for pest or weed control at 15.625 g/ha: 15.625 g ai/ha, evaluated after 13 days (100=total damage to plant; 0=no damage to plant), read-out: Morningglory, Ivy-leaved damage rating; for pest or weed control at 62.5 g/ha: 62.5 g ai/ha, read-out: Morningglory, Ivy-leaved damage rating (100=total damage to plant; 0=no damage to plant); for pest or weed control at 62.5 g/ha / pest or weed control at 250 g/ha: evaluated after 13 days; for pest or weed control at 250 g/ha: 250 g ai/ha, read-out: damage to plant, Morningglory, Ivy-leaved (100=total damage to plant; 0=no damage to plant)
How it was run: as §2

[11] = tested on: redroot pigweed (Amaranthus retroflexus); experiment: Test G Post-Emergence Protocol; details: Amaranthus retroflexus, post-emergence, 312 h; for pest or weed control at 15.625 g/ha: 15.625 g ai/ha, evaluated after 13 days (100=total damage to plant; 0=no damage to plant), read-out: Pigweed, Redroot damage rating; for pest or weed control at 62.5 g/ha: 62.5 g ai/ha, read-out: Pigweed, Redroot damage rating (100=total damage to plant; 0=no damage to plant); for pest or weed control at 62.5 g/ha / pest or weed control at 250 g/ha: evaluated after 13 days; for pest or weed control at 250 g/ha: 250 g ai/ha, read-out: damage to plant, Pigweed, Redroot (100=total damage to plant; 0=no damage to plant)
How it was run: as §2

[12] = tested on: velvetleaf (Abutilon theophrasti); experiment: Test G Post-Emergence Protocol; details: Abutilon theophrasti, post-emergence, 312 h; for pest or weed control at 15.625 g/ha: 15.625 g ai/ha, evaluated after 13 days (100=total damage to plant; 0=no damage to plant), read-out: Velvetleaf damage rating; for pest or weed control at 62.5 g/ha: 62.5 g ai/ha, read-out: Velvetleaf damage rating (100=total damage to plant; 0=no damage to plant); for pest or weed control at 62.5 g/ha / pest or weed control at 250 g/ha: evaluated after 13 days; for pest or weed control at 250 g/ha: 250 g ai/ha, read-out: damage to plant, Velvetleaf (100=total damage to plant; 0=no damage to plant)
How it was run: as §2

Structure (SMILES) | pest or weed control at 15.625 g/ha [1] [%] | pest or weed control at 62.5 g/ha [1] [%] | pest or weed control at 250 g/ha [1] [%] | plant injury at 15.625 g/ha (corn (Zea mays) [2]) [%] | plant injury at 62.5 g/ha (corn (Zea mays) [2]) [%] | plant injury at 250 g/ha (corn (Zea mays) [2]) [%] | pest or weed control at 15.625 g/ha [3] [%] | pest or weed control at 62.5 g/ha [3] [%] | pest or weed control at 250 g/ha [3] [%] | pest or weed control at 15.625 g/ha [4] [%] | pest or weed control at 62.5 g/ha [4] [%] | pest or weed control at 250 g/ha [4] [%] | pest or weed control at 15.625 g/ha [5] [%] | pest or weed control at 62.5 g/ha [5] [%] | pest or weed control at 250 g/ha [5] [%] | pest or weed control at 15.625 g/ha [6] [%] | pest or weed control at 62.5 g/ha [6] [%] | pest or weed control at 250 g/ha [6] [%] | pest or weed control at 15.625 g/ha [7] [%] | pest or weed control at 62.5 g/ha [7] [%] | also measured
CN1C[C@H](c2ccc(C(F)(F)F)cc2)[C@@H](C(=O)Nc2ncccc2C#N)C1=O (racemic) [Compound 1433] | 0 | 0 | 0 | 0 | 0 | 0 | 0 | 0 | 0 | 0 | 0 | 0 | 0 | 0 | 0 | 0 | 0 | 0 | 0 | 0 | pest or weed control at 250 g/ha [7]: 0%; plant injury at 15.625 g/ha (corn (Zea mays) [8]): 0%; plant injury at 62.5 g/ha (corn (Zea mays) [8]): 0%; plant injury at 250 g/ha (corn (Zea mays) [8]): 0%; pest or weed control at 15.625 g/ha [9]: 0%; pest or weed control at 62.5 g/ha [9]: 0%; pest or weed control at 250 g/ha [9]: 0%; pest or weed control at 15.625 g/ha [10]: 0%; pest or weed control at 62.5 g/ha [10]: 0%; pest or weed control at 250 g/ha [10]: 0%; pest or weed control at 15.625 g/ha [11]: 0%; pest or weed control at 62.5 g/ha [11]: 0%; pest or weed control at 250 g/ha [11]: 0%; pest or weed control at 15.625 g/ha [12]: 0%; pest or weed control at 62.5 g/ha [12]: 0%; pest or weed control at 250 g/ha [12]: 0%
CN1C[C@H](c2ccc(C(F)(F)F)cc2)[C@@H](C(=O)Nc2cnccc2O)C1=O (racemic) [Compound 1466] | 0 | 0 | 0 | 0 | 0 | 0 | 0 | 0 | 0 | 0 | 0 | 0 | 0 | 0 | 0 | 0 | 0 | 0 | 0 | 0 | pest or weed control at 250 g/ha [7]: 20%; plant injury at 15.625 g/ha (corn (Zea mays) [8]): 0%; plant injury at 62.5 g/ha (corn (Zea mays) [8]): 10%; plant injury at 250 g/ha (corn (Zea mays) [8]): 20%; pest or weed control at 15.625 g/ha [9]: 0%; pest or weed control at 62.5 g/ha [9]: 10%; pest or weed control at 250 g/ha [9]: 30%; pest or weed control at 15.625 g/ha [10]: 0%; pest or weed control at 62.5 g/ha [10]: 10%; pest or weed control at 250 g/ha [10]: 10%; pest or weed control at 15.625 g/ha [11]: 10%; pest or weed control at 62.5 g/ha [11]: 30%; pest or weed control at 250 g/ha [11]: 80%; pest or weed control at 15.625 g/ha [12]: 0%; pest or weed control at 62.5 g/ha [12]: 0%; pest or weed control at 250 g/ha [12]: 0%
CN1C[C@@H](c2ccc(C(F)(F)F)cc2)[C@H](C(=O)Nc2ccn[nH]2)C1=O (racemic) [Compound 1573] | 0 | 0 | 0 | 0 | 0 | 0 | 0 | 0 | 0 | 0 | 0 | 0 | 0 | 0 | 0 | 0 | 0 | 0 | 0 | 0 | pest or weed control at 250 g/ha [7]: 0%; plant injury at 15.625 g/ha (corn (Zea mays) [8]): 0%; plant injury at 62.5 g/ha (corn (Zea mays) [8]): 0%; plant injury at 250 g/ha (corn (Zea mays) [8]): 0%; pest or weed control at 15.625 g/ha [9]: 0%; pest or weed control at 62.5 g/ha [9]: 0%; pest or weed control at 250 g/ha [9]: 0%; pest or weed control at 15.625 g/ha [10]: 0%; pest or weed control at 62.5 g/ha [10]: 0%; pest or weed control at 250 g/ha [10]: 0%; pest or weed control at 15.625 g/ha [11]: 0%; pest or weed control at 62.5 g/ha [11]: 0%; pest or weed control at 250 g/ha [11]: 0%; pest or weed control at 15.625 g/ha [12]: 0%; pest or weed control at 62.5 g/ha [12]: 0%; pest or weed control at 250 g/ha [12]: 0%
